In PMC7597377 (Science signaling, 2020):
Where a chain is given by its changes, count along the chain named.

Tests used:
Assay in all cases: competitive radiometric binding vs [3H]E2
[1] = molecular target: T1, ERα LBD (WT-Q, his-tagged) (Homo sapiens, UniProt P03372)
T1 sequence (P03372 302-552 limits assumed): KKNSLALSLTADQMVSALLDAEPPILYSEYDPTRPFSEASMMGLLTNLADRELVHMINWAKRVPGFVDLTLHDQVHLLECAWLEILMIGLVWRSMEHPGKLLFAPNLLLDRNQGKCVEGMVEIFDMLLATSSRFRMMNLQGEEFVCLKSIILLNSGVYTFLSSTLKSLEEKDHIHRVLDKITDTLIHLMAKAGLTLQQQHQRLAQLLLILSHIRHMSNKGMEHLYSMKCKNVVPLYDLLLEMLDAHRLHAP

[2] = molecular target: T2, ERα LBD (WT-Q, his-tagged) (Homo sapiens, UniProt P03372, Q375K)
T2 sequence (P03372 302-552 Q375K limits assumed): T1 sequence (P03372 302-552 limits assumed) with Q74K

[3] = molecular target: T3, ERα LBD (WT-Q, his-tagged) (Homo sapiens, UniProt P03372, Q375L)
T3 sequence (P03372 302-552 Q375L limits assumed): T1 sequence (P03372 302-552 limits assumed) with Q74L

[4] = molecular target: T4, ERα LBD (WT-Q, his-tagged) (Homo sapiens, UniProt P03372, Q375H)
T4 sequence (P03372 302-552 Q375H limits assumed): T1 sequence (P03372 302-552 limits assumed) with Q74H

[5] = molecular target: T5, ERα LBD (WT-Q, his-tagged) (Homo sapiens, UniProt P03372, Q375E)
T5 sequence (P03372 302-552 Q375E limits assumed): T1 sequence (P03372 302-552 limits assumed) with Q74E

Row | Ki [1] | Ki [2] | Ki [3] | Ki [4] | SMILES | Ki [5]
1 | 0.13 ± 0.04 nM | 0.29 ± 0.02 nM | 0.16 ± 0.04 nM | 0.74 ± 0.04 nM | CC[C@H]1C[C@]2(C)[C@@H](O)CC[C@H]2[C@@H]2CCc3cc(O)ccc3[C@@H]12 [Et-E2] | –
2 | 0.06 ± 0.02 nM | 0.29 ± 0.05 nM | 0.07 ± 0.01 nM | 0.29 ± 0.07 nM | CC[C@H](c1ccc(O)cc1)[C@@H](CC)c1ccc(O)cc1 [Hex] | –

Row | SMILES | Ki [1] | Ki [2] | Ki [3] | Ki [4] | Ki [5]
3 | C[C@]12C[C@H](CCl)[C@@H]3c4ccc(O)cc4CC[C@H]3[C@@H]1CC[C@@H]2O [CME] | 0.11 ± 0.04 nM | 0.41 ± 0.1 nM | 0.22 ± 0.05 nM | 0.58 ± 0.14 nM | 0.35 ± 0.08 nM
